Source: publication PMC4515242, “ESR and X-ray Structure Investigations on the Binding and Mechanism of Inhibition of the Native State of Myeloperoxidase with Low Molecular Weight Fragments” (Applied Magnetic Resonance, 2015)

Legend:
Human Myeloperoxidase = biological target: T1, Human Myeloperoxidase (Homo sapiens, UniProt P05164); test: X-ray co-crystal growth by soaking MPO crystals with inhibitor; conditions: crystals soaked with 50 mM inhibitor
T1 construct: purchased Lee Biosciences 426-10
T1 sequence (P05164 49-745): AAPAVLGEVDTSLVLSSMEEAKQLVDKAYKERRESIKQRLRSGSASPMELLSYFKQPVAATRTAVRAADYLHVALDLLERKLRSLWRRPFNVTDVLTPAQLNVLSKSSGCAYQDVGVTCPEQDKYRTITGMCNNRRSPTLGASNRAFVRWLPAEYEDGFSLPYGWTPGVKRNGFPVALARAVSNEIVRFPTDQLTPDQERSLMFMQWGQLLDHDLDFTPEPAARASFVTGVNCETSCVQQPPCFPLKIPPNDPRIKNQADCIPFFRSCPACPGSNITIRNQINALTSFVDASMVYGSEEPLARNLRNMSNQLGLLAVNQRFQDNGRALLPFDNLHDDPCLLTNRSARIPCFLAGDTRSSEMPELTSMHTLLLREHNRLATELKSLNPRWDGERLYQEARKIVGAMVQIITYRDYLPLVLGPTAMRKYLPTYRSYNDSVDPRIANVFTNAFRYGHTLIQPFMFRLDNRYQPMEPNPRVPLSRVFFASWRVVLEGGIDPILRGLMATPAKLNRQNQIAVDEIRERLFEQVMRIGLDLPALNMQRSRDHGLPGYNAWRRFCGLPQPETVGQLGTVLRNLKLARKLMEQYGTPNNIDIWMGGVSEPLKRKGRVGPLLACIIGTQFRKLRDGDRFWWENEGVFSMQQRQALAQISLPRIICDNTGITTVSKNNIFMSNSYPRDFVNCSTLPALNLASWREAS
Procedure: Human Myeloperoxidase and co-crystals of MPO were crystallized and analyzed using methods similar to those described by Davey and Fenna. Briefly, hanging drops of 25 mg/mL MPO, 25 mM sodium acetate pH 5.0, 50 mM NaCl, 50 mM ammonium sulfate, 2 mM calcium chloride, and 3-10 % polyethylene glycol 8000 were set up at 21 °C over reservoir solutions containing 300 mM sodium chloride. Crystals of the space group P21 and having two MPO subunits per asymmetric unit grew with the aid of micro-seeding as very thin plates having a brownish orange tinge. Crystals were soaked with inhibitor compounds at a concentration of 50 mM, in a stabilizing buffer containing 18 % polyethylene glycol 8000, 56 mM ammonium sulfate, 2.2 mM calcium acetate, and 56 mM HEPES pH 7.0. Co-crystals were cryo-protected in a stabilizing buffer containing 22.2 % methylpentanediol prior to flash cooling in liquid nitrogen.
Diffraction data were collected at 100 K using Synchrotron beam line 31ID at the Advanced Photon Source (Argonne National Laboratory) and were integrated using MOSFLM v.6.2.6 [18]. […] Inhibitor binding to the MPO heme group was indicated by appropriately shaped peaks in the Fo–Fc electron density maps. The inhibitor was included in the model, and iterative cycles of manual model building with COOT [20] and restrained refinement with REFMAC v5.2.0019 [21] were used to complete the overall structure. Figures of the crystal structure were generated using PYMOL (www.pymol.org). […] The higher B-factors for the inhibitor molecules could be attributed to inhibitor occupancies of less than 1.0 or to higher degrees of thermal motion associated with the inhibitors. Lower than expected electron density peak heights were also observed for the Cl atom in the inhibitors, which could be due to the radiation damage to this X-Ray sensitive group.

[1] = ABTS radical cation decolorization assay to measure the antioxidant capacity; conditions: % inhibition at 20 uM single dose, read at 734 nm after 30 min
Procedure: The assay was modeled after the published procedure. Briefly, ABTS radical cation was prepared by adding 100 μl of 70 mM K2S2O8 to 10 ml ABTS, followed by vortexing and incubating at 37 °C water bath for 2 h. […] Trolox standards are dissolved in water. The reaction is started by adding the ABTS radical cation solution to the MPO inhibitors or Trolox (final concentration 20 μM). The plate is gently shaken for 1 min and then set on a bench top at room temperature for 30 min.

[2] = biological target: T2, native state (Fe3+) of hMPO (Homo sapiens, UniProt P05164); test: Low temperature ESR binding assay (binding-induced g shift, Rrelative); conditions: for ESR Rrelative: Rrelative = (Rbound - Rnative)/Rnative x 100, inhibitor:MPO 40:1, pH 6, 6 % DMSO, 4-7 K; for Δg: absolute difference between g X and g Y of the bound complex; for ESR Binding: class by Rrelative, inhibitor:MPO 40:1; for g X / g Y: electronic g value of the bound complex, X-band ESR, 5 K
T2 construct: purchased Athens Research and Technology
T2 sequence (P05164 49-745): T1 sequence (P05164 49-745)
Procedure: After 5-min. incubation at room temperature, the entire reaction mixture (0.235 mL) was transferred to the ESR quartz tubes. To avoid the quartz tubes breaking during the rapid freezing cycles, the ESR tubes were initially frozen in a 1:1 Isopentane-Cyclohexane mixture cooled with dry ice powder and then transferred to a liquid nitrogen Dewar to be queued up for ESR measurements. The reaction mixture contained a final concentration of 6 % DMSO. ESR spectra were recorded on a Varian E-12, X-band spectrometer equipped with an Air Products liquid helium cryostat.
The experimental g values correspond to the spin Hamiltonian pertinent to the high-spin ion (S = 5/2).1 H=DSZ2-1/3SS+1+E/DSX2-SY2+βgeS.Be where D and E are the eigen values of the axial and rhombic field components, i.e., the symmetry of the ligand (inhibitors approaching heme in this case). […] When the heme lodges inside the protein, the protein side chain amino acid (histidine) approaches the heme vicinity and either binds (axially) directly to the iron in the heme pocket. […] Thus, the fifth ligand leads to lower (rhombic) symmetries causing the signal at g ~ 6 to split. This non-tetragonal splitting of the heme is quantitated by the relationship,2 E/D=Δg/48 where ∆g represents the absolute difference between the gX and gY components. Alternatively, making use of the fact that E/D maximum value = 1/3, one can simplify the above expression as a percentage of rhombicity, R:3 R=Δg/16×100%. […] To rank-order molecules in terms of their ability to distort the heme pocket/plane environment, we used a ratio of total distortion in the bound complex w.r.t. distortion seen in the native unbound enzyme:4 Rrelative=Rbound-Rnative/Rnative×100.
From the relative rhombicities of the bound and unbound complex, a measure of the strength of binding could be derived. […] For the ease of classification, we have empirically defined those with 5 ≤ Rrelative ≥ 2 as weak binding; 15 ≥ Rrelative ≥ 10 as moderate binding; and 25 ≥ Rrelative ≥ 15 as strong binding (Table 2).

hMPO = biological target: T3, hMPO (Homo sapiens, UniProt P05164); test: Alpha screen assay: inhibition of MPO-initiated nitration of the Apo-A1 peptide ([…]); assay type: biochemical; conditions: MPO 11.8 nM, pH 7.4, 45 min RT
T3 construct: purchased Biodesign A31804H
T3 sequence (P05164 49-745): T1 sequence (P05164 49-745)
Procedure: In a typical experiment, MPO (11.8 nM final concentration) in 20 mM phosphate buffer pH 7.4, 10 % glycerol and 0.005 % gelatin (PB) is added to each well of a multi-well plate containing 20 μl PB ± compound (final concentration of DMSO = 0.9 %). The reaction is started by the addition of 20 μl PB containing 1.5 μM ApoAI peptide substrate, 300 μM diethylenetriaminepentaacetic acid (DTPA), 300 μM sodium nitrite, and 30 μM H2O2. The total reaction volume is 60 μl. The plates are incubated with agitation for 45 min at RT. The reaction is terminated with the addition of 20 μl of a stop solution containing 11.2 nM rabbit anti-nitrotyrosine antibody (final conc. of 2.8 nM), 100 μg/ml streptavidin donor beads, and 100 μg/ml protein A acceptor beads (final concentration of […]), FBS (1.6 % final concentration) in Superblock buffer. The plates are sealed, incubated in the dark for 1 h, and read on a Packard Fusion alpha plate reader.
Through a chloride independent pathway, MPO catalyzes the one electron oxidation of nitrite ions to nitrogen dioxide radicals which then […] protein amino acids like Tyrosine. We used the Apo-A1 peptide substrate ([…]) to follow the nitration of the Tyrosine (indicated by Y in the scheme below): MPO+H2O2→Compound INO2-+Compound I→NO2·+Compound II [drawing 1] Our initial experiments focused on identifying inhibitors that bind to the heme to inhibit the above catalytic action. A representative set of inhibitors is collected in Fig. 1a (strong binders, vide infra) and b (non binders, vide infra).

Row | X ray Cocrystal result (Human Myeloperoxidase) | ESR Rrelative [2] | Δg [2] | ESR Binding [2] | g X [2] | g Y [2] | IC50 (hMPO) [µM] | Structure (SMILES) | % Anti oxidant potential [1] [%]
1 | No | 0.2 | – | No | – | – | 0.396 | Oc1n[nH]c2c1CCC2 [LSN386639] | 38.2
2 | No | 0.2 | – | No | – | – | 333 | Oc1nnc(-c2ccccc2)s1 [LSN227931] | 0

Second part, the molecule before the results:

Row | Structure (SMILES) | X ray Cocrystal result (Human Myeloperoxidase) | ESR Rrelative [2] | Δg [2] | ESR Binding [2] | g X [2] | g Y [2] | IC50 (hMPO) [µM] | % Anti oxidant potential [1] [%]
3 | O=C(O)c1n[nH]c2ccccc12 [LSN23500] | No | 2.4 | 1.875 | Weak (5 ≤ Rrelative ≥ 2 as weak binding) | 6.789 | 4.914 | 160 | 0
4 | Cc1cc(C(F)(F)F)c(C#N)c(=O)[nH]1 [LSN131429] | Yes | -28.6 | 1.344 | Strong (25 ≥ Rrelative ≥ 15 as strong binding) | 6.559 | 5.215 | 138 | 9
5 | O=C1CC(c2ccc(Cl)cc2)=NN1 [LSN34893] | No | 0.2 | – | No | – | – | 0.219 | 53.4
6 | NC(=O)c1n[nH]cc1O [LSN104607] | No | 0 | – | No | – | – | 0.667 | 1.56
7 | O=[N+]([O-])c1c(O)ncnc1O [LSN106019] | Yes | 29.2 | 2.31 | Strong (25 ≥ Rrelative ≥ 15 as strong binding) | 7.023 | 4.713 | 538 | 0
8 | Cc1c(N)n[nH]c1-c1ccccc1 [LSN27223] | No | 3.3 | – | Weak (5 ≤ Rrelative ≥ 2 as weak binding) | – | – | 0.698 | 32.7
9 | S=c1[nH]nc(-c2ccncc2)o1 [LSN19450] | No | 0 | – | No | – | – | 3.99 | 85.8
10 | Cc1cc(O)nc2[nH]nc(O)c12 [LSN66421] | No | 0.2 | – | No | – | – | 0.406 | 10.4
11 | Sc1nnc(-c2cccnc2)o1 [LSN811183] | Yes | 16.5 | 2.115 | Strong (25 ≥ Rrelative ≥ 15 as strong binding) | 6.924 | 4.809 | 73 | 95.9
12 | Cc1cc(C)c2c(O)n[nH]c2n1 [LSN42503] | No | 0.3 | – | No | – | – | 0.168 | 82.5
13 | O=C(NO)c1ccccc1O [LSN13243] | Yes | 14.7 | – | Moderate (15 ≥ Rrelative ≥ 10 as moderate binding) | – | – | 5.9 | 74.9
14 | Fc1ccccc1-c1n[nH]c(=S)o1 [LSN2303506] | Yes | 21.7 | 2.1759 | Strong (25 ≥ Rrelative ≥ 15 as strong binding) | 6.9749 | 4.799 | 27.9 | 97.7
